Measured values taken from US4117230A, “Hydantoin derivatives as therapeutic agents” (priority 1977, dated 1978).

What was measured:
aldose reductase = target: T1, aldose reductase (Bos taurus, UniProt P16116); assay: inhibition of aldose reductase enzyme activity (procedure of S. Hayman et al., modified by K. Sestanj et al.); format: biochemical, calf; settings: for inhibition at 100 µM: 10^-4 M; for inhibition at 100 µM / inhibition at 10 µM / inhibition at 1 µM / inhibition at 0.1 µM: calf lens enzyme, read-out: Percent inhibition of aldose reductase enzyme activity; for inhibition at 10 µM: 10^-5 M; for inhibition at 1 µM: 10^-6 M; for inhibition at 0.1 µM: 10^-7 M; for aldose reductase inhibitory activity (in words): qualitative statement
T1 construct: partially purified aldose reductose enzyme obtained from calf lens; from tissue; host or cells: calf lens
Method: (§1) The activity of the compounds of the present invention, as agents for the control of chronic diabetic complications, is determined by their ability to successfully pass one or more of the following standard biological and/or pharmacological tests, viz., (1) measuring their ability to inhibit the enzyme activity of isolated aldose reductase; (2) measuring their ability to reduce or inhibit sorbitol accumulation in the sciatic nerve of acutely sterptozotocinized (i.e., diabetic) rats; (3) measuring their ability to reverse already-elevated sorbitol levels in the sciatic nerve and lens of chronic streptozotocin-induced diabetic rats; (4) measuring their ability to prevent or inhibit galactitol formation in the lens of acutely galactosemic rats, and (5) measuring their ability to delay cataract formation and reduce the severity of lens opacities in chronic galactosemic rats.
Hayman et al., as described in the Journal of Biological Chemistry, Vol. 240, p. […] In every case, the substrate employed ws partially purified aldose reductose enzyme obtained from calf lens.

[1] = test system: galactitol levels in the lens of galactosemic subjects; assay: lowering of galactitol levels in the lens of galactosemic subjects (summary statement); format: in vivo; settings: qualitative statement
[2] = test system: sorbitol accumulation in the sciatic nerve of streptozotocinized (i.e., diabetic) rats; assay: inhibition of sorbitol accumulation in the sciatic nerve of acutely streptozotocinized (diabetic) rats; format: in vivo, rat; settings: measured at 27 h, vs untreated
Method: as §1
The following spiro-hydantoin compounds of Preparation C and Examples I-V, VII-IX, XI-XVII, XIX-XXV, XXVII and XXX-XXXIII, respectively, were tested for their ability to reduce or inhibit sorbitol accumulation in the sciatic nerve of streptozotocinized (i.e., diabetic) rats by the procedure essentially described in U.S. Pat. No. 3,821,383. In the present study, the amount of sorbitol accumulation in the sciatic nerves was measured 27 hours after induction of diabetes. The compounds were administered orally at the dose levels indicated at 4, 8 nd 24 hours following the administration of streptozotocin. The results obtained in this manner are presented below in terms of percent inhibition (%) afforded by the test compound as compared to the case where no compound was administered (i.e., the untreated animal where sorbitol levels normally rise from approximately […]. tissue to as high as […]. tissue in the 27-hour test period): […]

[3] = test system: sorbitol levels in the sciatic nerve and lens of diabetic subjects; assay: lowering of sorbitol levels in sciatic nerve (peripheral nerves) and lens of diabetic subjects (summary statement); format: in vivo; settings: qualitative statement
[4] = 5.0 mg./kg. orally at 4, 8 and 24 h after streptozotocin
[5] = 1.5 mg./kg. orally at 4, 8 and 24 h after streptozotocin
[6] = 10 mg./kg. orally at 4, 8 and 24 h after streptozotocin
[7] = 0.75 mg./kg. orally at 4, 8 and 24 h after streptozotocin

Structure (SMILES)	inhibition at 100 µM (aldose reductase)	inhibition at 10 µM (aldose reductase)	inhibition at 1 µM (aldose reductase)	inhibition at 0.1 µM (aldose reductase)	aldose reductase inhibitory activity (in words) (aldose reductase)	lowering of galactitol levels in the lens (in words) [1]	Percent inhibition of sorbitol accumulation in the sciatic nerve [2, 4]	lowering of sorbitol levels in sciatic nerve (peripheral nerves) and lens (in words) [3]	Percent inhibition of sorbitol accumulation in the sciatic nerve [2, 5]	Percent inhibition of sorbitol accumulation in the sciatic nerve [2, 6]	Percent inhibition of sorbitol accumulation in the sciatic nerve [2, 7]	Percent inhibition of sorbitol accumulation in the sciatic nerve ([2]; 2.5 mg./kg. orally at 4, 8 and 24 h after streptozotocin)
O=C1NC(=O)C2(CCSc3cc(Cl)c(Cl)cc32)N1 (centres unmarked) [Ex. XI, 6',7'-dichloro-spiro-[imidazolidine-4,4'-thiochroman]-2,5-dione]	67%	84%	76%	69%	highly potent	extremely effective	59%	extremely effective	–	–	–	–
O=C1NC(=O)C2(CCc3ccccc32)N1 (centres unmarked) [Ex. I, spiro-[imidazolidine-4,1'-indan]-2,5-dione]	73%	39%	18%	-11%	highly potent	extremely effective	52%	extremely effective	29%	67%	–	–
O=C1NC(=O)C2(CCOc3cc(Cl)c(Cl)cc32)N1 (centres unmarked) [Ex. XXIII, 6,7-dichloro-spiro-[chroman-4,4'-imidazolidine]-2',5'-dione]	59%	96%	91%	84%	highly potent	extremely effective	–	extremely effective	64%	–	–	–
O=C1NC(=O)C2(CCOc3ccccc32)N1 (centres unmarked) [Ex. XX, spiro[chroman-4,4'-imidazolidine]-2',5'-dione]	73%	64%	-9%	-16%	–	–	58%	–	–	77%	–	34%
COc1ccc2c(c1)C1(CCC2)NC(=O)NC1=O (centres unmarked) [Ex. XVI, 3',4'-dihydro-7'-methoxy-spiro[imidazolidine-4,1'(2'H)naphthalene]-2,5-dione]	54%	–	23%	–	–	–	25%	–	–	44%	–	–

Further lines, with some results ahead:

inhibition at 100 µM (aldose reductase)	inhibition at 10 µM (aldose reductase)	inhibition at 1 µM (aldose reductase)	inhibition at 0.1 µM (aldose reductase)	aldose reductase inhibitory activity (in words) (aldose reductase)	Structure (SMILES)	lowering of galactitol levels in the lens (in words) [1]	Percent inhibition of sorbitol accumulation in the sciatic nerve [2, 4]	lowering of sorbitol levels in sciatic nerve (peripheral nerves) and lens (in words) [3]	Percent inhibition of sorbitol accumulation in the sciatic nerve [2, 5]	Percent inhibition of sorbitol accumulation in the sciatic nerve [2, 6]	Percent inhibition of sorbitol accumulation in the sciatic nerve [2, 7]	Percent inhibition of sorbitol accumulation in the sciatic nerve ([2]; 2.5 mg./kg. orally at 4, 8 and 24 h after streptozotocin)
73%	81%	77%	64%	highly potent	O=C1NC(=O)C2(CCOc3ccc(Cl)cc32)N1 (centres unmarked) [Ex. XXV, 6-chloro-spiro-[chroman-4,4'-imidazolidine]-2',5'-dione]	extremely effective	–	extremely effective	84%	–	64%	–
85%	90%	78%	81%	highly potent	O=C1NC(=O)C2(CCOc3c(Cl)cc(Cl)cc32)N1 (centres unmarked) [Ex. XXIV, 6,8-dichloro-spiro-[chroman-4,4'-imidazolidine]-2',5'-dione]	extremely effective	–	extremely effective	–	–	82%	–
87%	85%	52%	6%	–	O=C1NC(=O)C2(CCOc3c(Cl)cccc32)N1 (centres unmarked) [Ex. XXVII, 8-chloro-spiro-[chroman-4,4'-imidazolidine]-2',5'-dione]	–	–	–	30%	–	–	–
